Experimental data as given in patent publication US4746678A, “Phenanthrene derivatives” (EGIS Gyoryszergyar, priority 1985, dated 1988).

Key:
wheat powdery mildew = assay: in vivo test against wheat powdery mildew; set-up: species or system "MV-4" wheat (host plant); details: identical test conditions
Procedure: In vivo tests are carried out against cereals powdery mildew.
In vivo activity is tested against wheat powdery mildew in a phytobox of the Conviron type, at 20° C., a relative humidity of 90% and a light intensity of 9000 lux. As host plant the elite propagating seed grain material of officially qualified "MV-4" wheat species is used. Wheat plants are cultivated in 6 days' periods, in cultivating dishes (diameter 11 cm) containing a 1:1 mixture of sand and perlite. Each dish contains 160 plants; at the beginning of the treatment the plants were 5-6 cm high. High dispersity grade aqueous suspensions or acetonic solutions of the test compound are prepared and 8 ml of each suspension or solution, respectively, are applied onto the plants by means of a spraying apparatus operated by gaseous nitrogen. Inoculation is carried out 24 days after the fungicidal treatment. The test units are placed in three replicates and in random block arrangement in the phytotron. The rate of infectedness is determined on the 8th day after inoculation. Numerical evaluation is accomplished on the basis of the method described by Hinfner and Papp by observing separately 50-60 plants.
The results are expressed as ED50 and ED90 values of the test compounds being calculated from the co-relation of effect and concentration by means of mathematical-biometrical methods. […]

[1] = tested on: bean rust (Uromyces apperdiculatus); assay: in vivo test on "pinto" bean against bean rust; set-up: species or system "pinto" bean (host plant); details: spray at a concentration of 500 ppm; symptoms 7-8 days after infection
Procedure: A further test is carried out on "pinto" bean species against bean rust (Uromyces apperdiculatus). Into each cultivating dish three seeds are sown in a 1:1:0.035 mixture of sand, perlite and super compost. Two-leave staged bean plants subjected to 7-9 days' glass house pre-cultivation are treated with the test compound and the treated plants are inoculated. The concentration of the spore suspension amounts to 0.1 g/10 ml and 2.5 ml of spore suspension are used for each cultivating dish. After inoculation the plants are incubated at 20° C. under a relative moisture content of 100% for 48 hours. The symptoms manifest themselves 7-8 days after infection. Three replicates are used; untreated control treatment is also carried out and the commercial product "Dithane M 45" serves as reference.

## C/C=C/C(=O)Oc1c(C(C)CCCCCC)cc([N+](=O)[O-])cc1[N+](=O)[O-] (stereo not shown) [6-(1-methyl-heptyl-2,4-dinitro-phenyl-crotonate)]
Wheat powdery mildew
  activity relative to the most efficient novel compounds (products of Examples 7 and 8): lower activity

## CCCCNC(=O)ON=C1C(=O)c2ccccc2-c2ccccc21 [Example 7, 9,10-phenanthrene-dione-9-(n-butyl-aminocarbonyl)-oxime]
[1]
  inhibition of bean rust infection: 100%

## CNC(=O)ON=C1C(=O)c2ccccc2-c2ccccc21 [Example 8, 9,10-Phenanthrene-dione-9-(methylaminocarbonyl)-oxime]
[1]
  inhibition of bean rust infection: 100%

## CCCCNC(=O)n1c(NC(=O)OC)nc2ccccc21 [Reference compound, methyl-1-(n-butylcarbamoyl)-2-benzimidazole-carbamate]
Wheat powdery mildew
  activity relative to the most efficient novel compounds (products of Examples 7 and 8): lower activity
